Assay results reported in patent US20070231374A1, “Composition Comprising Ether Lipid” (priority 2003, published 2007).

Experiments:
[1] = Phase diagram of GEO/water mixtures (polarising microscope, small angle x-ray diffraction); type: physicochemical; conditions: mixtures with water, FIG. 1
Method: Mixtures of glyceryl-1-monooleate ether (GEO) with water were prepared, shaken and allowed to equilibrate at a known temperature. The phase(s) of the resulting mixture were examined under the polarising microscope and by small angle x-ray diffraction.
At higher water content, both the L2 and the HII phases were stable in the presence of excess water.

[2] = stated as known; cited from earlier work

| water concentration at which reversed hexagonal (HII) phase forms [1] [%] | SMILES | stable phase in excess water [2] |
| --- | --- | --- |
| > 15 | CCCCCCCC/C=C\CCCCCCCCOCC(O)CO (stereo not drawn) [GEO, Glyceryl-1-monooleate ether] | reversed hexagonal |
| – | CCCCCCCC/C=C\CCCCCCCC(=O)OCC(O)CO (stereo not drawn) [GMO, glyceryl monooleate] | reversed cubic |
